In publication PMC5893132, “Selective inhibition of histamine-evoked Ca^2+ signals by compartmentalized cAMP in human bronchial airway smooth muscle cells” (Cell Calcium, 2018):
Where a name gives a salt, the structure may show the parent alone. Blank lines part the entries; values can stand above or below the molecule they belong to. No end group written: not given here. *: point of attachment. Myristoyl = CCCCCCCCCCCCCC(=O)*

What was measured:
Type in all cases: cell-based, human
hBASMCs = assay: Increase in [Ca2+]i evoked directly by stimuli in fluo-4-loaded hBASMCs; settings: for increase in [Ca2+]i evoked by the substance itself: hBASMCs from donors 1-3, PGE2 and sulprostone in Ca2+-free HBS; for effect of removal of extracellular Ca2+ on the peak increase in [Ca2+]i evoked by the stimulus: HBS vs Ca2+-free HBS (2.5 mM BAPTA added 37 s before the stimulus)
Description: (§1) Two methods were used to measure [Ca^2+]i in populations of hBASMCs. For measurements using a FlexStation III plate-reader (Molecular Devices, Sunnyvale, CA, USA), hBASMCs were seeded into 96-well plates (10^4 cells per well). After about 4 days, when the cells were confluent, the medium was replaced with SMGM-2 without serum or growth factor supplements, and the cells were used after a further 24 h. This period in serum-free medium increased by about 2-fold the amplitude of the increases in [Ca^2+]i evoked by histamine (results not shown). Cells were washed with HEPES-buffered saline (HBS: 135 mM NaCl, 5.9 mM KCl, 1.2 mM MgCl2, 1.5 mM CaCl2, 11.6 mM HEPES, 11.5 mM D-glucose, pH 7.3), and loaded with fluo-4 by incubation with fluo-4-AM (2 μM) in HBS (100 μL per well) containing pluronic F127 (0.02%, v/v) and probenecid (2.5 mM). After 1 h at 20 °C, the medium was replaced with HBS (100 μL per well) containing probenecid (2.5 mM). After a further incubation at 20 °C for 1 h, the medium was replaced with HBS (60–80 μL per well) or nominally Ca^2+-free HBS, and the cells were used immediately for experiments at 20 °C. In some experiments, BAPTA (2.5 mM) was added to HBS during the recording; this reduced the free [Ca^2+] of the HBS to ∼120 nM without affecting the pH. Drug additions (20 μL at 4 or 5 times the final concentration) were added automatically. Fluorescence from fluo-4 (excitation 485 nm, emission 525 nm) was recorded at 1.44-s intervals using Softmax Pro 5.4 (Molecular Devices). Fluorescence was calibrated to [Ca^2+]i from: [Ca^2+]i=KDCa×(F−Fmin/Fmax−F) where, KDCa is the equilibrium dissociation constant of fluo-4 for Ca^2+ (345 nM), F is the recorded fluorescence, and Fmin and Fmax are the fluorescence values recorded after addition of triton-X-100 (0.1%, v/v) with either BAPTA (10 mM, Fmin) or CaCl2 (10 mM, Fmax). Although treatment with triton-X-100 releases fluo-4 from cells into the medium, the fluo-4 fluorescence is captured with the same efficiency whether it is trapped within cells or dispersed within the small volume of the wells (unpublished observations). Fmax was determined for each well at the end of an experiment, and the average value was used for each column of 8 wells. Fmin was determined from parallel wells on each plate.
(§2) For measurements of [Ca^2+]i using an FDSS 7000 FLIPR (Hamamatsu), hBASMCs were seeded into 384-well plates (8000 cells per well) in 20 μL of SMGM-2 containing 5% serum. After 24 h, the medium was replaced with 15 μL of serum-free SMGM-2, and after a further 6 h the cells were loaded with Ca^2+ indicator by addition of FLIPR calcium 4 assay kit (Molecular Devices) supplemented with probenecid (2.5 mM). The exact composition of this ‘no-wash’ indicator kit is not disclosed by the manufacturer, but it contains fluo-4-AM and components that reduce background fluorescence. The manufacture’s stock solution was diluted 10-fold into HBSS containing BSA (0.1%, w/v) and HEPES (20 mM); 5 μL of this solution was then added to each well (containing 15 μL of serum-free SMGM-2). After 2 h at 37 °C in humidified air containing 5% CO2, the plate was used for experiments at 20 °C. Most additions (5 μL) were prepared in HBSS supplemented with HEPES (20 mM) and BSA (0.1%, w/v). For more prolonged incubations, drugs were diluted in the initial loading medium (to avoid changes in dye-loading during the ‘no wash’ protocol). Fluorescence signals (excitation at 480 nm, emission at 540 nm) were calibrated to [Ca^2+]i after measurement of Fmin and Fmax uniquely for each well, using a KDCa = 345 nM.
(§3) All concentration-effect relationships were determined by addition of different drug concentrations to individual wells in the same multi-well plate, rather than by sequential additions to the same well. […]

[1] = tested on: histamine-evoked Ca^2+ signals in hBASMCs; assay: Histamine-evoked Ca2+ signals in populations of fluo-4-loaded hBASMCs; settings: for effect on the inhibition of histamine-evoked Ca2+ signals by a maximally effective concentration of isoproterenol / effect on the sensitivity to isoproterenol of histamine-evoked Ca2+ signals: inhibitor pre-treatment 30 min, then isoproterenol 1 min; for effect on histamine-evoked Ca2+ signals: pre-treatment: 8-Br-cGMP, IBMX 20 min, forskolin 10 μM, NKH477 10 μM, butaprost 10 μM, TCS2510 1 μM 5 min
Description: as §1, §2, §3

[2] = tested on: intracellular cAMP in hBASMCs; assay: Intracellular cAMP in hBASMCs by [3H]-adenine labeling; settings: 5 min in HBS, TCS2510 1 μM; for effect on intracellular cAMP: PGE2 10 μM, butaprost 10 μM, [3H]-adenine labeling
Description: hBASMCs in 24-well plates (50,000 cells per well) were grown to confluence. The medium was then replaced with serum-free SMGM-2, and after 24 h this was supplemented with [^3H]-adenine (1 μCi per well, 18.4 Ci·mmol^−1). After 2 h at 37 °C in humidified air with 5% CO2, the medium was removed, and the cells were washed twice with HBS. The cells were stimulated at 20 °C in HBS. Incubations were terminated by removal of the medium, addition of ice-cold trichloroacetic acid (5%, 1 mL) and rapid freezing. This protocol ensured that only intracellular [^3H]-cAMP was detected. [^3H]-adenine nucleotides were separated by column chromatography, and the activity was determined by liquid scintillation counting using Ultra-gold scintillant. Results are presented as [^3H]-cAMP activity as a percentage of the sum of the activities of the fractions containing [^3H]-cAMP, [^3H]-ATP, [^3H]-ADP and [^3H]-AMP; henceforth, reported as [^3H]-cAMP (%).

Molecule: 18:1 lysophosphatidic acid [LPA]
increase in [Ca2+]i evoked by the substance itself (hBASMCs): Cells from all three donors responded

Molecule: O=C(Nc1ncnc2c1ncn2[C@@H]1O[C@@H]2COP(=O)(O)OC2C1O)c1ccccc1 (stereo in doubt) [6-Bnz-cAMP]
amplitude of the Ca2+ signals evoked by histamine, % of paired controls ([1]; 500 μM, 20 min pre-treatment, histamine 10 μM, n = 5): 54 ± 4%

pIC50 for inhibition of histamine-evoked Ca2+ signals ([1]; pre-treatment 20 min, histamine 10 μM, n = 6): 3.32 ± 0.16
Molecule: Nc1ncnc2c1nc(Br)n2[C@@H]1O[C@@H]2COP(=O)(O)O[C@H]2[C@H]1O [8-Br-cAMP]

Molecule: CO[C@@H]1[C@@H]2OP(=O)(O)OC[C@H]2O[C@H]1n1c(Sc2ccc(Cl)cc2)nc2c(N)ncnc21 [8-pCPT-2′-O-Me-cAMP]
amplitude of the Ca2+ signals evoked by histamine, % of paired controls ([1]; 300 μM pre-treatment, histamine 10 μM): 103 ± 8%

Molecule: Nc1ncnc2c1ncn2[C@@H]1O[C@H](COP(=O)(O)OP(=O)(O)OP(=O)(O)O)[C@@H](O)[C@H]1O [ATP]
increase in [Ca2+]i evoked by the substance itself (hBASMCs): cells from only one donor responded robustly to ATP (donor 3)

Molecule: Cc1ccc(S(=O)(=O)c2c(C)cc(C)cc2C)cc1 [ESI-05, 4-methylphenyl-2,4,6-trimethylsulphone]
effect on the concentration-dependent inhibition of histamine-evoked Ca2+ signals by isoproterenol ([1]; ESI-05 25 μM, 30 min in HBS, histamine 10 μM added 1 min after isoproterenol, n = 9): had no effect

Molecule: Cl.Cl.O=S(=O)(NCCNCC=Cc1ccc(Br)cc1)c1cccc2cnccc12 [H89, N-[2-[[3-(4-bromophenyl)-2-propenyl]amino]ethyl]-5-isoquinolinesulfonamide dihydrochloride]
effect on the inhibition of histamine-evoked Ca2+ signals by a maximally effective concentration of isoproterenol ([1]; histamine 10 μM, n = 9): had no significant effect
effect on the sensitivity to isoproterenol of histamine-evoked Ca2+ signals ([1]; histamine 10 μM, n = 9): significantly reduced the sensitivity to isoproterenol

Molecule: CCCCCCOC(=O)[C@]1(O)C[C@@H]2O[C@@]1(C)n1c3ccccc3c3c4c(c5c6ccccc6n2c5c31)C(=O)NC4 [KT5720, (9R,10S,12S)-2,3,9,10,11,12-hexahydro-10-hydroxy-9-methyl-1-oxo-9,12-epoxy-1H-diindolo[1,2,3-fg:3′,2′,1′-kl]pyrrolo[3,4-i][1,6]benzodiazocine-10-carboxylic acid, hexyl ester]
effect on the inhibition of histamine-evoked Ca2+ signals by a maximally effective concentration of isoproterenol ([1]; histamine 10 μM, n = 9): had no significant effect
effect on the sensitivity to isoproterenol of histamine-evoked Ca2+ signals ([1]; histamine 10 μM, n = 9): Neither KT5720 nor PKI-myr significantly affected

Molecule: C=C[C@@]1(C)CC(=O)[C@]2(O)[C@@]3(C)[C@@H](O)CCC(C)(C)[C@@H]3C(OC(=O)CCN(C)C)[C@H](OC(C)=O)[C@@]2(C)O1.Cl (stereo partly drawn) [NKH477, N,N-dimethyl-(3R,4aR,5S,6aS,10S,10aR,10bS)-5-(acetyloxy)-3-ethenyldodecahydro-10,10b-dihydroxy-3,4a,7,7,10a-pentamethyl-1-oxo-1H-naphtho[2,1-b]pyran-6-yl ester β-alanine hydrochloride]
effect on histamine-evoked Ca2+ signals [1]: mimicked the effect of isoproterenol

Molecule: CCCCC[C@H](O)/C=C/[C@H]1[C@H](O)CC(=O)[C@@H]1C/C=C\CCCC(=O)O [PGE2, prostaglandin E2]
increase in [Ca2+]i evoked by the substance itself (hBASMCs): directly evoked a significant increase in [Ca^2+]i
effect on intracellular cAMP [2]: stimulated cAMP accumulation

Molecule: Nc1ncnc2c1nc(Sc1ccc(Cl)cc1)n2[C@@H]1O[C@@H]2COP(O)(=S)O[C@H]2[C@H]1O (stereo partly shown) [Rp-8-CPT-cAMPS, Rp-8-CPT-cAMPs]
effect on the inhibition of histamine-evoked Ca2+ signals by a maximally effective concentration of isoproterenol ([1]; histamine 10 μM, n = 9): had no significant effect
effect on the sensitivity to isoproterenol of histamine-evoked Ca2+ signals ([1]; histamine 10 μM, n = 9): significant decrease in the sensitivity to isoproterenol, but the effect was small

Molecule: O=C1CC[C@H](C=C[C@@H](O)Cc2ccccc2)N1CCCCCCc1nn[nH]n1 [TCS2510, (5R)-5-[(3S)-3-hydroxy-4-phenyl-1-buten-1-yl]-1-[6-(2H-tetrazol-5-yl)hexyl]-2-pyrrolidinone]
increase in [Ca2+]i evoked by the substance itself (hBASMCs): Neither butaprost nor TCS2510 evoked an increase in [Ca^2+]i
effect on histamine-evoked Ca2+ signals [1]: inhibited the Ca^2+ signals evoked by histamine
effect on intracellular cAMP [2]: stimulated formation of cAMP
production of cAMP at maximal concentration compared with forskolin, NKH477, isoproterenol or butaprost ([2]; equally effective in inhibiting histamine-evoked Ca2+ signals): far less

Molecule: Cn1c(=O)c2c(ncn2C)n(C)c1=O [caffeine]
increase in [Ca2+]i evoked by the substance itself (hBASMCs): A lack of response

Molecule: C[N+](C)(C)CCOC(N)=O [carbachol, carbamylcholine chloride]
effect of removal of extracellular Ca2+ on the peak increase in [Ca2+]i evoked by the stimulus (hBASMCs): unaffected
increase in [Ca2+]i evoked by the substance itself (hBASMCs): cells from only one other donor responded robustly to carbachol (donor 2)

EC50 (hBASMCs; Homo sapiens, histamine alone, HBSS, n = 7, read-out: sensitivity to histamine (pEC50) (converted)): 1.05 µM
Molecule: NCCc1c[nH]cn1 [histamine, Histamine dihydrochloride]
effect of removal of extracellular Ca2+ on the peak increase in [Ca2+]i evoked by the stimulus (hBASMCs): unaffected
increase in [Ca2+]i evoked by the substance itself (hBASMCs): Cells from all three donors responded
maximal amplitude of the peak increase in [Ca2+]i evoked by histamine (hBASMCs; histamine alone, HBSS, n = 7): 242 ± 15 nM

Molecule: CS(=O)(=O)NC(=O)CCC/C=C\C[C@H]1C(=O)C[C@@H](O)[C@@H]1/C=C/[C@@H](O)COc1ccccc1 [sulprostone, Sulprostone]
increase in [Ca2+]i evoked by the substance itself (hBASMCs): also evoked an increase in [Ca^2+]i

Molecule: bradykinin acetate (RPPGFSPFR; also: acetate salt; UniProt P01042 381-389, looked up)
effect of removal of extracellular Ca2+ on the peak increase in [Ca2+]i evoked by the stimulus (hBASMCs): unaffected
increase in [Ca2+]i evoked by the substance itself (hBASMCs): Cells from all three donors responded

Molecule: myristoylated protein kinase inhibitor 14–22 amide (Myristoyl-SGRTGRRNA-NH2; SMILES CCCCCCCCCCCCCC(=O)N[C@@H](CO)C(=O)NCC(=O)N[C@@H](CCCNC(=N)N)C(=O)N[C@H](C(=O)NCC(=O)N[C@@H](CCCNC(=N)N)C(=O)N[C@@H](CCCNC(=N)N)C(=O)N[C@@H](CC(N)=O)C(=O)N[C@@H](C)C(N)=O)[C@@H](C)O; UniProt P61925 14-22, looked up, fragment) [PKI-myr]
effect on the inhibition of histamine-evoked Ca2+ signals by a maximally effective concentration of isoproterenol ([1]; histamine 10 μM, n = 9): had no significant effect
effect on the sensitivity to isoproterenol of histamine-evoked Ca2+ signals ([1]; histamine 10 μM, n = 9): Neither KT5720 nor PKI-myr significantly affected
